Experiments:
[1] = 2D-GE plasma proteome profile of T. cruzi infected rats treated with PBN and/or BZ; type: in vivo, Sprague Dawley rats; details: chronically infected rats (RCP, RCB, RCPB), depleted plasma
Protocol: (§1) Animals and parasites. Sprague Dawley rats (4-5-weeks-old, Harlan Labs) were infected with T. cruzi (SylvioX10/4, 50,000 trypomastigotes/rat, intraperitoneal). Rats were given 1.3 mM PBN (beginning day 0, throughout the course of infection) and/or 0.7 mM BZ (beginning day 40 pi, for three weeks) in drinking water. The plasma samples were obtained at acute ([…] days post-infection (dpi)) and chronic (>150 dpi) stages of infection and disease development.
(§2) Rat plasma collection and removal of high-abundance proteins. Whole blood was collected in K3EDTA vacutainers and kept on ice for 30 min. The samples were centrifuged for 15 min at 3,000 g, and the lipid-containing upper layer was removed. The abundant proteins (e.g., albumin, α1-acid glycoprotein, α1-antitrypsin, α2-5 macroglobulin, apolipoproteins (ApoA-I, ApoA-II), fibrinogen, haptoglobin, immunoglobulins (IgA, IgG, and IgM), and transferrin) in plasma were removed using ProteomeLab IgY-12 LC 10 affinity spin columns (Beckman Coulter). The plasma samples depleted of abundant proteins were then concentrated by using Amicon® ultra centrifugal filters (3 kDa cut-off, from Millipore) and desalted by PD-10 desalting columns (GE Healthcare). Protein content was determined by using the Bradford assay (Bio-Rad).
(§3) Two-dimensional gel electrophoresis. The 11-cm immobilized pH gradient (IPG) strips (pH: 3-10 or 5-8, Bio-Rad) were rehydrated at 50 V for 12 h with 250-μl rehydration buffer (1 M thiourea, 8 M urea, 2% CHAPS, 1% dithiothreitol, and 0.2% ampholytes) containing 200-μg protein samples and 0.002% of bromophenol blue. Isoelectric focusing was performed at 500 V for 1 h, 1000 V for 1 h, 8000 V for 2 h, and then at 8000 V for a total of 50,000 Vh. The IPG strips were suspended in equilibration buffer (50 mM Tris-HCI, pH 6.8, 6 M urea, 20% glycerol) and sequentially incubated for 15 min each in presence of 2% DTT/2% SDS (reducing conditions) and 2.5% iodoacetamide/2% SDS (alkylating conditions). Equilibrated IPG strips were subjected to second-dimension electrophoresis by using 8-10% linear gradient precast Tris-HCI gels (BioRad) on a PROTEAN plus Dodeca Cell System at 75 V for 1 h and then at 120 V until the dye front reached the bottom of the gel. Gels were fixed in 10% methanol/7% acetic acid, stained with SYPRO Ruby (BioRad), destained in 10% ethanol/7% acetic acid, and imaged by using a high-resolution ProXPRESS Proteomic Imaging System (Perkin Elmer).
(§4) Image analysis. In total, 28 SYPRO Ruby-stained 2D gels (n=4/group) were digitalized on a ProXPRESS Proteomic Imaging System (Perkin Elmer), and the images were analyzed on Progenesis SameSpots™ software 2.0 (NonLinear Dynamics). Normalized spot volumes, i.e., the volume of each spot over the volume of all spots in the gel, were used for comparison of the different groups, and candidates were identified as protein spots that changed at least 2-fold versus their specific control. Statistical significance was assessed by a two-tailed Student's t-test and analysis of variance test (ANOVA), and p values of <0.05 were considered significant for comparison between control and experimental data.
(§5) Sprague Dawley rats were infected with T. cruzi and treated with phenyl-α-tert-butyl nitrone (PBN, antioxidant) with or without benznidazole (BZ, anti-parasite drug). Plasma samples were collected at day 25 (acute stage) and 150 (chronic stage) post-infection, and depleted of high-abundance proteins to enrich detection of low-abundance proteins by 2D-gel electrophoresis. Gel images of plasma samples from normal rats (RN), rats that were acutely infected (RA) and treated with PBN (RAP), and chronically infected rats (RC) that were treated with PBN (RCP), BZ (RCB), or PBN and BZ (RCPB) were analyzed on Progenesis SameSpotst™ software and normalized spot volumes were used for comparison of different groups.

[2] = tested on: T. cruzi; assay: as above; type: in vivo, Sprague Dawley rats
Protocol: as §1, §2, §3, §4, §5

[3] = tested on: T. cruzi; assay: Detection of carbonyl proteins (DNPH, anti-DNP Western blotting) in plasma of T. cruzi infected rats; type: in vivo, Sprague Dawley rats
Protocol: as §1
Detection of carbonyl proteins. IPG strips were loaded with protein samples and subjected to 1st-dimension isoelectric focusing, as above. IPG strips were then incubated with 1 ml of 3% SDS and 5 mM 2,4-dinitrophenylhydrazine (DNPH)/10% trifluoroacetic acid for 25 min. […] Membranes were hybridized with rabbit anti-DNP antibody (1:300 dilution, Invitrogen) and HRP-conjugated goat anti-rabbit secondary antibody (1:4000 dilution, Sigma), and signal detected by using an Amersham™ ECL Plus system, according to the manufacturer's protocol (Levine et al., (1990) Methods Enzymol, 186, 464-78; Wen and Garg, (2004) Free Radic Biol Med, 37, 2072-81). Images were visualized, digitized, and signal was quantified by densitometry by using a FluorChem 8800 image analyzer (Alpha Innotech). […]

[4] = tested on: Trypanosoma cruzi; details: cited from earlier work
[5] = chronically infected rats (RCP, RCB, RCPB), depleted plasma

For O=C(Cn1ccnc1[N+](=O)[O-])NCc1ccccc1 [BZ, Benznidazole], the “Average Normalized Density × 100,000, spot 106 CDK5RAP2” value [1] was 2.21, the “number of proteins stimulated in a treatment-specific manner” value ([2]; chronic chagasic plasma) was 2 and the “number of proteins with altered expression” value ([2]; chronic chagasic plasma, 22 of the 61 shared with BZ-treated rats) was 22. For the same compound, the “decline in the plasma proteome profile” value ([2]; chronically infected rats) was 30.1%, the “Average Normalized Density × 100,000, spot 12, 180 KRT1” value [2, 5] was 9.47 and the “Average Normalized Density × 100,000, spot 34 TTC37” value [2, 5] was 0.37. The “Average Normalized Density × 100,000, spot 37, 593 SRPRB” value [2, 5] was 3.21, the “Average Normalized Density × 100,000, spot 49, 673 IGH-1” value [2, 5] was 3.98 and the “Average Normalized Density × 100,000, spot 52, 54, 302 TF” value [2, 5] was 0.60. For the same compound, the “Average Normalized Density × 100,000, spot 53, 225 SroTP” value [2, 5] was 1.72, the “Average Normalized Density × 100,000, spot 72 IDH3A” value [2, 5] was 83.09 and the “Average Normalized Density × 100,000, spot 73, 705, 787 ALB” value [2, 5] was 216.9. For the same compound, the “Average Normalized Density × 100,000, spot 77 MUG1” value [2, 5] was 107.7, the “Average Normalized Density × 100,000, spot 88 IGHG-” value [2, 5] was 4.75 and the “Average Normalized Density × 100,000, spot 94 FGB” value [2, 5] was 0.55. For the same compound, the “Average Normalized Density × 100,000, spot 115, 123 SERPINAL1” value [2, 5] was 8.36, the “Average Normalized Density × 100,000, spot 149 PUS1” value [2, 5] was 1.16 and the “Average Normalized Density × 100,000, spot 153 MYL2” value [2, 5] was 2.37. For the same compound, the “Average Normalized Density × 100,000, spot 177 AIM” value [2, 5] was 2.77, the “Average Normalized Density × 100,000, spot 181 SERPINA3L” value [2, 5] was 7.53 and the “Average Normalized Density × 100,000, spot 184, 257, 328 CFH” value [2, 5] was 6.15. For the same compound, the “Average Normalized Density × 100,000, spot 207, 555 CCHL1A1” value [2, 5] was 11.32, the “Average Normalized Density × 100,000, spot 215 GPT” value [2, 5] was 3.23 and the “Average Normalized Density × 100,000, spot 266 CEP350” value [2, 5] was 1.43. The “Average Normalized Density × 100,000, spot 299 UMPS” value [2, 5] was 1.17, the “Average Normalized Density × 100,000, spot 315 ITIH4” value [2, 5] was 5.19 and the “Average Normalized Density × 100,000, spot 334 ZNF689” value [2, 5] was 1.05. The “Average Normalized Density × 100,000, spot 341 Nmag 2782” value [2, 5] was 1.44, the “Average Normalized Density × 100,000, spot 355, 359 PLG” value [2, 5] was 3.29 and the “Average Normalized Density × 100,000, spot 382, 385, 378, 572, 578, 595 CFB” value [2, 5] was 23.45. For the same compound, the “Average Normalized Density × 100,000, spot 389 GSN” value [2, 5] was 44.17, the “Average Normalized Density × 100,000, spot 430 SCD2” value [2, 5] was 13.65 and the “Average Normalized Density × 100,000, spot 434, 678 COG1” value [2, 5] was 43.20. For the same compound, the “Average Normalized Density × 100,000, spot 439 C4BPA” value [2, 5] was 1.36, the “Average Normalized Density × 100,000, spot 452 AFM” value [2, 5] was 59.65 and the “Average Normalized Density × 100,000, spot 464 IGH-6” value [2, 5] was 4.66. For the same compound, the “Average Normalized Density × 100,000, spot 479 IGHM” value [2, 5] was 8.65, the “Average Normalized Density × 100,000, spot 493 ZFP637” value [2, 5] was 17.41 and the “Average Normalized Density × 100,000, spot 515 CESIC/ES2” value [2, 5] was 24.22. The “Average Normalized Density × 100,000, spot 524 ERCC4” value [2, 5] was 68.54, the “Average Normalized Density × 100,000, spot 551, 587, 908 C3” value [2, 5] was 32.88 and the “Average Normalized Density × 100,000, spot 559 HPX” value [2, 5] was 17.91. The “Average Normalized Density × 100,000, spot 571 GC” value [2, 5] was 3.75, the “Average Normalized Density × 100,000, spot 576, 620 Act-248” value [2, 5] was 2.38 and the “Average Normalized Density × 100,000, spot 586, 614 SERPINC1” value [2, 5] was 132.20. The “Average Normalized Density × 100,000, spot 592 DNASE1L1” value [2, 5] was 11.70, the “Average Normalized Density × 100,000, spot 604 APOH” value [2, 5] was 67.12 and the “Average Normalized Density × 100,000, spot 606 GC” value [2, 5] was 11.27. The “Average Normalized Density × 100,000, spot 627 MAPI” value [2, 5] was 44.92, the “Average Normalized Density × 100,000, spot 638 LOC501738” value [2, 5] was 4.69 and the “Average Normalized Density × 100,000, spot 649 SYNE2” value [2, 5] was 26.48. For the same compound, the “Average Normalized Density × 100,000, spot 651 DSTN” value [2, 5] was 37.12, the “Average Normalized Density × 100,000, spot 655 DLGAP2” value [2, 5] was 151.30 and the “Average Normalized Density × 100,000, spot 672 SERPINF” value [2, 5] was 23.29. For the same compound, the “Average Normalized Density × 100,000, spot 676 rCG33447” value [2, 5] was 24.67, the “Average Normalized Density × 100,000, spot 691 APOA4” value [2, 5] was 65.41 and the “Average Normalized Density × 100,000, spot 715 SERPINA1” value [2, 5] was 30.96. The “Average Normalized Density × 100,000, spot 724 ALB” value [2, 5] was 2.19, the “Average Normalized Density × 100,000, spot 728 SYMPK” value [2, 5] was 2.21 and the “Average Normalized Density × 100,000, spot 733 DECR2” value [2, 5] was 1.67. For the same compound, the “Average Normalized Density × 100,000, spot 740 PRPH” value [2, 5] was 4.02, the “Average Normalized Density × 100,000, spot 745 PFKFB1” value [2, 5] was 2.30 and the “Average Normalized Density × 100,000, spot 749 MY05B” value [2, 5] was 2.46. For the same compound, the “Average Normalized Density × 100,000, spot 766 SCG2” value [2, 5] was 3.79, the “Average Normalized Density × 100,000, spot 779, 909 VIM” value [2, 5] was 3.08 and the “Average Normalized Density × 100,000, spot 796 Hypothetical p” value [2, 5] was 5.11. For the same compound, the “Average Normalized Density × 100,000, spot 814 RBM15B” value [2, 5] was 3.61, the “Average Normalized Density × 100,000, spot 817 BRPF1” value [2, 5] was 25.15 and the “Average Normalized Density × 100,000, spot 820, 1081 BFAR” value [2, 5] was 13.38. The “Average Normalized Density × 100,000, spot 827 GNAT” value [2, 5] was 10.78, the “Average Normalized Density × 100,000, spot 832 PSMB” value [2, 5] was 3.47 and the “Average Normalized Density × 100,000, spot 860 KRT10” value [2, 5] was 2.64. The “Average Normalized Density × 100,000, spot 867 RAI14” value [2, 5] was 2.41, the “Average Normalized Density × 100,000, spot 881 CHD4” value [2, 5] was 28.89 and the “Average Normalized Density × 100,000, spot 897 MY05A” value [2, 5] was 11.65. For the same compound, the “Average Normalized Density × 100,000, spot 900 rCG25416” value [2, 5] was 7.06, the “Average Normalized Density × 100,000, spot 906 APOE” value [2, 5] was 74.42 and the “Average Normalized Density × 100,000, spot 966 CMRF-35-like molecule-7” value [2, 5] was 49.99. The “Average Normalized Density × 100,000, spot 979 rCG25357” value [2, 5] was 31.72, the “Average Normalized Density × 100,000, spot 992 APOA1” value [2, 5] was 38.11 and the “protein spots observed (2D-GE)” value [2, 5] was 2486. The “differentially expressed proteins identified in chagasic plasma of treated rats” value ([2]; share of differentially expressed protein spots, FIG. 7B) was 17%, the protein carbonylation ([3]; chronic chagasic plasma) was “not effective in preventing protein carbonylation” and the carbonylated protein spots ([3]; chronically infected rats (RCP, RCB, RCPB), plasma) was 31. For the same compound, the controlling parasitemia ([4]; acutely infected individuals) was “effective” and the “efficacy in arresting or reversing disease progression” value ([4]; chronically infected patients) was “not clearly established”.

Source: US20120316211A1, “Diagnostic Methods for Assessing Risk of Chagas Disease and Heart Failure” (The Board or Regents of the University of Texas System, priority 2011, published 2012)
